{"source": "DBAASP", "experiment_in_all_cases": "≥ marks a high value that may be exact or a test limit, other limits are often not marked, values filed in µg/mL are converted to µM", "key": {"[1]": {"system": "Staphylococcus aureus"}, "[2]": {"system": "Candida albicans"}, "[3]": {"system": "Escherichia coli"}, "[4]": {"system": "Pseudomonas aeruginosa ATCC 9027"}, "[5]": {"system": "Staphylococcus aureus ATCC 6538"}, "[6]": {"system": "Acinetobacter baumannii ATCC 19606"}, "[7]": {"system": "Escherichia coli ATCC 25922"}, "[8]": {"system": "Staphylococcus aureus ATCC 29213"}, "[9]": {"system": "Enterococcus faecalis ATCC 29212"}, "[10]": {"system": "Staphylococcus aureus ATCC 25923"}, "[11]": {"system": "Bacillus subtilis ATCC 6633"}, "[12]": {"system": "Candida albicans ATCC 10231"}, "[13]": {"system": "Klebsiella pneumoniae ATCC 700603"}, "[14]": {"system": "Acinetobacter baumannii"}, "[15]": {"system": "Micrococcus luteus"}, "[16]": {"system": "Klebsiella pneumoniae"}}}
{"smiles": "CC[C@H](C)[C@H](NC(=O)[C@H](CCCCN)NC(=O)[C@H](CS)NC(=O)[C@H](C)NC(=O)[C@@H](NC(=O)[C@H](Cc1ccccc1)NC(=O)CNC(=O)[C@H](CC(C)C)NC(=O)CNC(=O)[C@@H](NC(=O)[C@H](CCCN=C(N)N)NC(=O)CNC(=O)[C@H](CC(C)C)NC(=O)[C@H](CC(N)=O)NC(=O)[C@H](CCCCN)NC(=O)[C@H](CC(C)C)NC(=O)[C@@H](NC(=O)[C@H](CO)NC(=O)[C@H](CC(C)C)NC(=O)[C@H](CCSC)NC(=O)[C@@H](N)CO)C(C)C)C(C)C)C(C)C)C(=O)N[C@@H](CC(N)=O)C(=O)N[C@@H](CCCCN)C(=O)N[C@@H](CCC(N)=O)C(=O)N[C@@H](CS)C(=O)O", "note": "[SMLSVLKNLGRVGLGFVACKINKQC]", "values": [{"measurement": "MIC", "setting": "[1]", "value": 100, "unit": "µM"}, {"measurement": "MIC", "setting": "[2]", "value": 100, "unit": "µM"}, {"measurement": "MIC", "setting": "[3]", "value": 20, "unit": "µM"}]}
{"smiles": "CC(C)C[C@H](NC(=O)[C@H](C)NC(=O)[C@H](CCCCN)NC(=O)[C@H](CCCCN)NC(=O)[C@H](C)NC(=O)[C@H](CCCCN)NC(=O)[C@H](CCCCN)NC(=O)[C@H](CC(C)C)NC(=O)[C@H](C)NC(=O)[C@H](CCCCN)NC(=O)[C@H](CCCCN)NC(=O)[C@H](C)NC(=O)[C@H](CC(C)C)NC(=O)[C@H](C)NC(=O)[C@@H](N)Cc1ccccc1)C(N)=O", "note": "[FALAKKALKKAKKAL]", "values": [{"measurement": "MIC", "setting": "[4]", "value": 15.3, "unit": "µM"}, {"measurement": "MIC", "setting": "[5]", "value": 61.4, "unit": "µM"}]}
{"smiles": "CC(C)C[C@H](NC(=O)[C@H](CCCCN)NC(=O)[C@H](CC(C)C)NC(=O)[C@H](C)NC(=O)[C@H](CCCCN)NC(=O)[C@H](C)NC(=O)[C@H](CC(C)C)NC(=O)[C@H](CC(C)C)NC(=O)[C@H](CCCCN)NC(=O)[C@H](CCCCN)NC(=O)[C@H](C)NC(=O)[C@@H](N)Cc1ccccc1)C(N)=O", "note": "[FAKKLLAKALKL]", "values": [{"measurement": "MIC", "setting": "[4]", "value": 149, "unit": "µM"}, {"measurement": "MIC", "setting": "[5]", "value": "> 149", "unit": "µM"}]}
{"smiles": "CC(C)C[C@H](NC(=O)[C@@H](NC(=O)[C@H](CCCN=C(N)N)NC(=O)[C@H](CO)NC(=O)[C@H](CC(C)C)NC(=O)[C@H](C)NC(=O)[C@H](CC(N)=O)NC(=O)CNC(=O)[C@H](CC(C)C)NC(=O)[C@H](C)NC(=O)CNC(=O)[C@H](CC(C)C)NC(=O)[C@@H](N)Cc1ccccc1)C(C)C)C(N)=O", "note": "[FLGALGNALSRVL]", "values": [{"measurement": "MIC", "setting": "[6]", "value": "> 64", "unit": "µM"}, {"measurement": "MIC", "setting": "[7]", "value": "> 64", "unit": "µM"}, {"measurement": "MIC", "setting": "[8]", "value": 32, "unit": "µM"}, {"measurement": "MIC", "setting": "[9]", "value": "> 64", "unit": "µM"}]}
{"smiles": "CC(C)C[C@H](NC(=O)[C@H](C)NC(=O)[C@H](CCCCN)NC(=O)[C@H](CCCCN)NC(=O)[C@H](CC(C)C)NC(=O)[C@H](C)NC(=O)[C@H](CCCCN)NC(=O)[C@H](CC(C)C)NC(=O)[C@H](C)NC(=O)[C@H](CC(C)C)NC(=O)[C@H](C)NC(=O)[C@@H](N)Cc1ccccc1)C(N)=O", "note": "[FALALKALKKAL]", "values": [{"measurement": "MIC", "setting": "[4]", "value": 38.9, "unit": "µM"}, {"measurement": "MIC", "setting": "[5]", "value": 3.89, "unit": "µM"}]}
{"smiles": "CC(C)C[C@H](NC(=O)[C@@H]1CCCN1C(=O)[C@H](CCCCN)NC(=O)[C@@H]1CCCN1C(=O)[C@H](Cc1ccc(O)cc1)NC(=O)[C@H](CCCCN)NC(=O)[C@H](Cc1c[nH]c2ccccc12)NC(=O)[C@@H](N)CCCN=C(N)N)C(=O)N[C@@H](CCCCN)C(=O)N[C@@H](CCCN=C(N)N)C(=O)O", "note": "[RWKYPKPLKR]", "values": [{"measurement": "MIC", "setting": "[7]", "value": 54.7, "unit": "µM"}, {"measurement": "MIC", "setting": "[10]", "value": "> 72.9", "unit": "µM"}, {"measurement": "MIC", "setting": "[11]", "value": 27.3, "unit": "µM"}, {"measurement": "MIC", "setting": "[12]", "value": 54.7, "unit": "µM"}]}
{"smiles": "CC[C@H](C)[C@H](NC(=O)[C@H](Cc1ccc(O)cc1)NC(=O)[C@H](CCCCN)NC(=O)[C@H](CCCCN)NC(=O)[C@H](CC(C)C)NC(=O)[C@H](CC(C)C)NC(=O)[C@H](CCCCN)NC(=O)[C@H](CCCCN)NC(=O)[C@@H](NC(=O)[C@H](CC(C)C)NC(=O)[C@@H](N)CCCCN)C(C)C)C(=O)N[C@H](C(=O)N[C@@H](Cc1ccccc1)C(=O)O)[C@@H](C)O", "note": "[KLVKKLLKKYITF]", "values": [{"measurement": "MIC", "setting": "[4]", "value": 4, "unit": "µM"}, {"measurement": "MIC", "setting": "[7]", "value": "> 64", "unit": "µM"}, {"measurement": "MIC", "setting": "[10]", "value": "> 64", "unit": "µM"}, {"measurement": "MIC", "setting": "[13]", "value": "> 64", "unit": "µM"}, {"measurement": "MIC", "setting": "[14]", "value": "≥ 64", "unit": "µM"}]}
{"smiles": "CC[C@H](C)[C@H](NC(=O)CNC(=O)[C@H](CO)NC(=O)[C@H](CC(C)C)NC(=O)[C@H](C)NC(=O)[C@H](CC(=O)O)NC(=O)[C@H](CC(C)C)NC(=O)[C@H](CC(C)C)NC(=O)CN)C(=O)N[C@@H](CC(C)C)C(=O)NCC(=O)N[C@@H](CC(C)C)C(N)=O", "note": "[GLLDALSGILGL]", "values": [{"measurement": "MIC", "setting": "[15]", "value": 21.9, "unit": "µM"}]}
{"smiles": "CC[C@H](C)[C@H](NC(=O)[C@@H](NC(=O)[C@H](Cc1cnc[nH]1)NC(=O)[C@@H]1CCCN1C(=O)[C@@H](NC(=O)[C@H](CC(C)C)NC(=O)[C@H](CO)NC(=O)[C@H](CC(C)C)NC(=O)[C@@H](N)Cc1ccccc1)[C@@H](C)CC)C(C)C)C(=O)N[C@@H](CO)C(=O)N[C@@H](C)C(=O)N[C@H](C(=O)N1CCC[C@H]1C(=O)N[C@@H](Cc1cnc[nH]1)C(=O)N[C@H](C(=O)N[C@H](C(=O)N[C@@H](CC(N)=O)C(=O)N[C@@H](C)C(=O)N[C@@H](CC(C)C)C(=O)N[C@@H](CO)C(=O)N[C@@H](CC(N)=O)C(=O)N[C@@H](CC(C)C)C(N)=O)C(C)C)C(C)C)[C@@H](C)CC", "note": "[FLSLIPHVISAIPHVVNALSNL]", "values": [{"measurement": "MIC", "setting": "[7]", "value": "> 218", "unit": "µM"}, {"measurement": "MIC", "setting": "[10]", "value": "> 218", "unit": "µM"}, {"measurement": "MIC", "setting": "[2]", "value": "> 218", "unit": "µM"}, {"measurement": "MIC", "setting": "[16]", "value": "> 189", "unit": "µM"}]}
{"smiles": "CC[C@H](C)[C@H](NC(=O)[C@H](CC(N)=O)NC(=O)[C@H](CCCCN)NC(=O)[C@H](CC(C)C)NC(=O)[C@H](Cc1ccccc1)NC(=O)[C@@H](NC(=O)[C@H](CCCCN)NC(=O)[C@H](Cc1c[nH]c2ccccc12)NC(=O)[C@H](CO)NC(=O)[C@H](C)N)C(C)C)C(=O)NCC(=O)N[C@@H](CCCCN)C(=O)N[C@@H](C)C(=O)N[C@@H](C)C(=O)NCC(=O)N[C@@H](CCCCN)C(=O)N[C@@H](C)C(=O)N[C@H](C(=O)N[C@@H](CC(C)C)C(=O)N[C@@H](CC(N)=O)C(=O)N[C@@H](CO)C(=O)N[C@H](C(=O)N[C@H](C(=O)N[C@@H](CC(=O)O)C(=O)N[C@@H](CCSC)C(=O)N[C@H](C(=O)N[C@@H](CC(N)=O)C(=O)N[C@@H](CCC(N)=O)C(N)=O)C(C)C)[C@@H](C)O)C(C)C)C(C)C", "note": "[ASWKVFLKNIGKAAGKAVLNSVTDMVNQ]", "values": [{"measurement": "MIC", "setting": "[7]", "value": 2.68, "unit": "µM"}, {"measurement": "MIC", "setting": "[1]", "value": 2.68, "unit": "µM"}, {"measurement": "MIC", "setting": "[10]", "value": 2.68, "unit": "µM"}, {"measurement": "MIC", "setting": "[2]", "value": 10.7, "unit": "µM"}, {"measurement": "MIC", "setting": "[16]", "value": 10.7, "unit": "µM"}]}
{"smiles": "C[C@H](NC(=O)[C@@H]1CCCN1C(=O)[C@H](CCCN=C(N)N)NC(=O)[C@H](Cc1ccc(O)cc1)NC(=O)CNC(=O)[C@H](CC(N)=O)NC(=O)[C@@H](N)CO)C(=O)N[C@@H](Cc1ccc(O)cc1)C(=O)N[C@@H](CCCN=C(N)N)C(=O)N1CCC[C@H]1C(=O)N[C@@H](C)C(=O)N[C@@H](Cc1ccc(O)cc1)C(=O)N[C@@H](CCCN=C(N)N)C(=O)N1CCC[C@H]1C(=O)N[C@@H](CO)C(=O)N[C@@H](Cc1ccc(O)cc1)C(=O)N[C@@H](CCCN=C(N)N)C(=O)N1CCC[C@H]1C(N)=O", "note": "[SNGYRPAYRPAYRPSYRP]", "values": [{"measurement": "MIC", "setting": "[6]", "value": "> 32", "unit": "µM"}, {"measurement": "MIC", "setting": "[7]", "value": 32, "unit": "µM"}, {"measurement": "MIC", "setting": "[1]", "value": "> 32", "unit": "µM"}, {"measurement": "MIC", "setting": "[8]", "value": 32, "unit": "µM"}, {"measurement": "MIC", "setting": "[14]", "value": "≥ 32", "unit": "µM"}, {"measurement": "MIC", "setting": "[3]", "value": "> 32", "unit": "µM"}]}
{"smiles": "CC(C)C[C@H](NC(=O)[C@H](CCCCN)NC(=O)[C@H](CCCCN)NC(=O)[C@H](C)NC(=O)[C@H](CC(C)C)NC(=O)[C@H](CCCCN)NC(=O)[C@H](C)NC(=O)[C@H](CCCCN)NC(=O)[C@H](CCCCN)NC(=O)[C@H](C)NC(=O)[C@H](CC(C)C)NC(=O)[C@H](CCCCN)NC(=O)[C@H](CCCCN)NC(=O)[C@H](C)NC(=O)[C@@H](N)Cc1ccccc1)C(N)=O", "note": "[FAKKLAKKAKLAKKL]", "values": [{"measurement": "MIC", "setting": "[4]", "value": 59.3, "unit": "µM"}, {"measurement": "MIC", "setting": "[5]", "value": 119, "unit": "µM"}]}
